Data set [1] relates to HL-60 cells. The data set can be described thus: Flow cytometry (PI) cell cycle and quantification of apoptosis. The following applies: for effect of inhibitor on HAs-induced apoptosis (cytotoxic action of HAs): PD98059 25 AM, SP600125 20 AM, wortmannin 1 AM, then HAs 3 mg/ml 24 h. Background: Flow cytometry measures light scatter and fluorescence of single cells or particles in a stream.
Description: Flow cytometric analysis of HL-60 cells was performed on the 24-h cultures using a FACScan. The cells of harvest were centrifuged at 1000 rpm for 5 min at room temperature. Thereafter, cells were washed once with Tris-buffered saline (TBS). Then cell suspension was centrifuged again (1000 rpm, 5 min) and resuspended in 70% ethanol. After incubation at −20 for at least 24 h, the cells were resuspended in 1 ml of cell cycle assay buffer [50 μg/ml propidium iodide (PI), 50 μg/ml RNase A, and 0.1% Triton X-100], and it was incubated for 15 min in darkness. Propidium iodide (Sigma) was excited at 488 nm, and fluorescence signal was subjected to logarithmic amplification with PI fluorescence (red) being detected above 600 nm. Cell cycle distribution is presented as the number of cells versus the amount of DNA as indicated by the intensity of fluorescence, and the extent of apoptosis was determined by counting cells of DNA content below the G0/G1 peak.

Data set [2] deals with c-Jun. The data set can be described thus: Western blot, phosphorylated c-Jun in HL-60 cells. Type of data set: cell-based, human. The following applies: pretreatment with SB203580 (50 AM), then HAs 3 mg/ml 6 h. As to the method: (§1) The medium was removed, and the cells were rinsed with TBS at room temperature. Then 500 μl of cold RIPA buffer (1% NP-40, 50 mM Tris-base, 0.1% SDS, 0.5% deoxycholic acid, and 150 mM NaCl, pH 7.5) with three kinds of proteinase freshly added (10 μg/ml leupeptin, 10 μg/ml PMSF, and 17 μg/ml sodium orthovanadate) were used. After sonication for 1 h at 4° C., a centrifugation (10,000×g) of cell lysate was performed for 10 min at 4° C. The supernatant (50 μg protein) was mixed with an equal volume of electrophoresis sample buffer and boiled for 10 min, which was then subjected to SDS-polyacrylamide gel electrophoresis using a 10% running gel, and electroblotted to nitrocellulose membranes (Millipore, Bedford, Mass., USA). Nonspecific binding was blocked by incubation of the membrane with TBS containing 1% (W/V) nonfat dry milk and 0.1% (v/v) Tween-20 (TBST) for more than 2 h. Membranes were washed with TBST three times for 10 min and incubated with appropriate dilution of primary antibody in TBST for 2 h. Membranes were then extensively washed with TBST before being incubated with appropriate horseradish peroxidase-conjugated secondary antibody for 1 h. After washing the membrane three times, 10 min each in TBST, detection was performed using ECLWestern blotting detection reagents (Amersham, Arlington Heights, Ill., USA).
(In western blotting, separated proteins are transferred to a membrane and probed.)

The test system of data set [3] is Fas. The data set can be described thus: Western blot, Fas expression in HL-60 cells. Format: cell-based, human. To be noted: pretreatment with SB203580 (50 AM), then HAs 3 mg/ml 6 h. The procedure: as §1
Data set [4] concerns FasL. The data set can be described thus: Western blot, FasL expression in HL-60 cells. Format: cell-based, human. To be noted: pretreatment with SB203580 (50 AM), then HAs 3 mg/ml 6 h. The procedure: as §1

As for `C[S+]([O-])c1ccc(-c2nc(-c3ccc(F)cc3)c(-c3ccncc3)[nH]2)cc1` (stereo not shown) [SB203580, 4-[4-fluorophenyl]-2-[4-methylsulfinylphenyl]-5-[4-pyridyl]-1H-imidazole], the “reduction in the sub-G1 phase compared to HAs alone” value in data set [1] (50 AM SB203580 followed by 24-h exposure to HAs (3 mg/ml)) is roughly 50%. For the same molecule, in data set [1] (50 AM SB203580 preincubation followed by 24-h exposure to HAs (3 mg/ml)), the sub-G1 phase was found to be 27.39%. The “c-Jun (phospho-c-Jun) expression” value in data set [2] is recorded as “down-regulated”. For the same molecule, in data set [3], the Fas expression entry was “down-regulated”. In addition, in data set [4], the FasL expression entry is recorded as “down-regulated”.
Regarding `COC[C@H]1OC(=O)c2coc3c2[C@@]1(C)C1=C(C3=O)[C@@H]2CCC(=O)[C@@]2(C)C[C@H]1OC(C)=O` [wortmannin], the “effect of inhibitor on HAs-induced apoptosis (cytotoxic action of HAs)” value in data set [1] is “did not reduce the cytotoxic action of HAs”.
For `Oc1c2ccccc2c2c3c(cccc13)N=N2` [SP600125, 1,9-pyrazoloanthrone], the “effect of inhibitor on HAs-induced apoptosis (cytotoxic action of HAs)” value in data set [1] is recorded as “did not reduce the cytotoxic action of HAs”.

Source of the values: patent US8007835B2, “Hibiscusanthocyanins for inhibiting cancers” (Aiken Biotechnology International Co., Ltd., priority 2005, dated 2011).
